# Experiments:
# Experiment in all cases: relative viability (nuclei count vs DMSO), 5 days (fraction); higher = more cells survive
# NCI-H1355 = system: NCI-H1355
# How it was run: (§1)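 Cells from lung cancer lines were seeded into 1536-well plates and, one day later, dosed by pin tool. Treatments were either a single drug or a fixed dose of an anchor drug with five library-drug doses (not always all listed) in √10 steps. After 5 days, nuclei were stained in a one-step fixation (final 0.05% Triton X-100, 1% formaldehyde, 1 ug/ml Hoechst) and counted on 4× images, and relative viability is the treated-to-vehicle nuclei ratio, as the median of duplicate plates.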
# HCC-366 = system: HCC-366
# How it was run: as §1
# NCI-H2009 = system: NCI-H2009
# How it was run: as §1
# NCI-H2228 = system: NCI-H2228
# How it was run: as §1
# HCC-44 = system: HCC-44
# How it was run: as §1
# NCI-H596 = system: NCI-H596
# How it was run: as §1
# NCI-H2342 = system: NCI-H2342
# How it was run: as §1
# SK-MES-1 = system: SK-MES-1
# How it was run: as §1
# NCI-H647 = system: NCI-H647
# How it was run: as §1
# NCI-H1734 = system: NCI-H1734
# How it was run: as §1
# SK-LU-1 = system: SK-LU-1
# How it was run: as §1
# NCI-H2087 = system: NCI-H2087
# How it was run: as §1
# HARA = system: HARA
# How it was run: as §1
# NCI-H1395 = system: NCI-H1395
# How it was run: as §1
# NCI-H661 = system: NCI-H661
# How it was run: as §1
# NCI-H2170 = system: NCI-H2170
# How it was run: as §1
# NCI-H1437 = system: NCI-H1437
# How it was run: as §1
# LC-2-ad = system: LC-2-ad
# How it was run: as §1
# LOU-NH91 = system: LOU-NH91
# How it was run: as §1
# NCI-H2405 = system: NCI-H2405
# How it was run: as §1
# BEN = system: BEN
# How it was run: as §1
# HCC-827 = system: HCC-827
# How it was run: as §1
# EKVX = system: EKVX
# How it was run: as §1
structure (smiles),measurement,setting,value
CC(C)Oc1cc(Nc2nc(N[C@@H](C)c3ccc(F)cn3)ncc2Cl)n[nH]1 [AZ23] + Cc1cc(Nc2cc(N3CCN(C)CC3)nc(Sc3ccc(NC(=O)C4CC4)cc3)n2)n[nH]1 [Tozasertib] (partner 0.1 µM),relative viability,NCI-H1355; first compound 0.01 µM,0.507
same,relative viability,NCI-H1355; first compound 0.03162 µM,0.609
same,relative viability,NCI-H1355; first compound 0.3162 µM,0.597
same,relative viability,HCC-366; first compound 0.01 µM,0.114
same,relative viability,HCC-366; first compound 0.03162 µM,0.152
same,relative viability,HCC-366; first compound 0.3162 µM,0.234
same,relative viability,NCI-H2009; first compound 0.01 µM,0.755
same,relative viability,NCI-H2009; first compound 0.03162 µM,0.912
same,relative viability,NCI-H2009; first compound 0.3162 µM,0.91
same,relative viability,NCI-H2228; first compound 0.01 µM,0.219
same,relative viability,NCI-H2228; first compound 0.03162 µM,0.247
same,relative viability,NCI-H2228; first compound 0.3162 µM,0.265
same,relative viability,HCC-44; first compound 0.01 µM,0.991
same,relative viability,HCC-44; first compound 0.03162 µM,0.841
same,relative viability,HCC-44; first compound 0.3162 µM,1.15
same,relative viability,NCI-H596; first compound 0.01 µM,1
same,relative viability,NCI-H596; first compound 0.03162 µM,0.826
same,relative viability,NCI-H596; first compound 0.3162 µM,0.827
same,relative viability,NCI-H2342; first compound 0.01 µM,0.482
same,relative viability,NCI-H2342; first compound 0.03162 µM,0.483
same,relative viability,NCI-H2342; first compound 0.3162 µM,0.455
same,relative viability,SK-MES-1; first compound 0.03162 µM,1.1
same,relative viability,SK-MES-1; first compound 0.3162 µM,0.942
same,relative viability,NCI-H647; first compound 0.01 µM,0.146
same,relative viability,NCI-H647; first compound 0.03162 µM,0.449
same,relative viability,NCI-H647; first compound 0.3162 µM,0.261
same,relative viability,NCI-H1734; first compound 0.01 µM,0.252
same,relative viability,NCI-H1734; first compound 0.03162 µM,0.289
same,relative viability,NCI-H1734; first compound 0.3162 µM,0.276
same,relative viability,SK-LU-1; first compound 0.03162 µM,0.382
same,relative viability,SK-LU-1; first compound 0.3162 µM,0.335
same,relative viability,NCI-H2087; first compound 0.01 µM,0.271
same,relative viability,NCI-H2087; first compound 0.03162 µM,0.245
same,relative viability,NCI-H2087; first compound 0.3162 µM,0.245
same,relative viability,HARA; first compound 0.03162 µM,0.0837
same,relative viability,HARA; first compound 0.3162 µM,0.11
same,relative viability,NCI-H1395; first compound 0.03162 µM,0.812
same,relative viability,NCI-H1395; first compound 0.3162 µM,0.815
same,relative viability,NCI-H661; first compound 0.01 µM,0.366
same,relative viability,NCI-H661; first compound 0.03162 µM,0.354
same,relative viability,NCI-H661; first compound 0.3162 µM,0.353
same,relative viability,NCI-H2170; first compound 0.01 µM,0.836
same,relative viability,NCI-H2170; first compound 0.03162 µM,0.752
same,relative viability,NCI-H2170; first compound 0.3162 µM,0.831
same,relative viability,NCI-H1437; first compound 0.01 µM,0.434
same,relative viability,NCI-H1437; first compound 0.03162 µM,0.449
same,relative viability,NCI-H1437; first compound 0.3162 µM,0.413
same,relative viability,LC-2-ad; first compound 0.01 µM,0.467
same,relative viability,LC-2-ad; first compound 0.03162 µM,0.446
same,relative viability,LC-2-ad; first compound 0.3162 µM,0.452
same,relative viability,LOU-NH91; first compound 0.01 µM,0.641
same,relative viability,LOU-NH91; first compound 0.03162 µM,0.72
same,relative viability,LOU-NH91; first compound 0.3162 µM,0.644
same,relative viability,NCI-H2405; first compound 0.01 µM,0.709
same,relative viability,NCI-H2405; first compound 0.03162 µM,0.774
same,relative viability,NCI-H2405; first compound 0.3162 µM,0.808
same,relative viability,BEN; first compound 0.01 µM,0.483
same,relative viability,BEN; first compound 0.03162 µM,0.544
same,relative viability,BEN; first compound 0.3162 µM,0.527
same,relative viability,HCC-827; first compound 0.01 µM,0.448
same,relative viability,HCC-827; first compound 0.03162 µM,0.445
same,relative viability,HCC-827; first compound 0.3162 µM,0.415
same,relative viability,EKVX; first compound 0.01 µM,0.471
same,relative viability,EKVX; first compound 0.03162 µM,0.458
same,relative viability,EKVX; first compound 0.3162 µM,0.407
CC(C)Oc1cc(Nc2nc(N[C@@H](C)c3ccc(F)cn3)ncc2Cl)n[nH]1 [AZ23] + O=C(CCCCCCC(=O)Nc1ccccc1)NO [Vorinostat] (partner 1 µM),relative viability,NCI-H1355; first compound 0.01 µM,0.672
same,relative viability,NCI-H1355; first compound 0.03162 µM,0.715
same,relative viability,NCI-H1355; first compound 0.3162 µM,0.633
same,relative viability,HCC-366; first compound 0.01 µM,0.299
same,relative viability,HCC-366; first compound 0.03162 µM,0.428
same,relative viability,HCC-366; first compound 0.3162 µM,0.441
same,relative viability,NCI-H2009; first compound 0.01 µM,0.704
same,relative viability,NCI-H2009; first compound 0.03162 µM,0.787
same,relative viability,NCI-H2009; first compound 0.3162 µM,0.793
same,relative viability,NCI-H2228; first compound 0.01 µM,0.72
same,relative viability,NCI-H2228; first compound 0.03162 µM,0.585
same,relative viability,NCI-H2228; first compound 0.3162 µM,0.628
same,relative viability,HCC-44; first compound 0.01 µM,1.14
same,relative viability,HCC-44; first compound 0.03162 µM,1.16
same,relative viability,HCC-44; first compound 0.3162 µM,1.09
same,relative viability,NCI-H596; first compound 0.01 µM,0.523
same,relative viability,NCI-H596; first compound 0.03162 µM,0.622
same,relative viability,NCI-H596; first compound 0.3162 µM,0.582
same,relative viability,NCI-H2342; first compound 0.01 µM,0.619
same,relative viability,NCI-H2342; first compound 0.03162 µM,0.74
same,relative viability,NCI-H2342; first compound 0.3162 µM,0.686
same,relative viability,SK-MES-1; first compound 0.03162 µM,1.22
same,relative viability,SK-MES-1; first compound 0.3162 µM,1.2
same,relative viability,NCI-H647; first compound 0.01 µM,0.935
same,relative viability,NCI-H647; first compound 0.03162 µM,0.497
same,relative viability,NCI-H647; first compound 0.3162 µM,0.591
same,relative viability,NCI-H1734; first compound 0.01 µM,0.64
same,relative viability,NCI-H1734; first compound 0.03162 µM,0.88
same,relative viability,NCI-H1734; first compound 0.3162 µM,1.06
same,relative viability,SK-LU-1; first compound 0.03162 µM,0.801
same,relative viability,SK-LU-1; first compound 0.3162 µM,0.759
same,relative viability,NCI-H2087; first compound 0.01 µM,0.969
same,relative viability,NCI-H2087; first compound 0.03162 µM,0.995
same,relative viability,NCI-H2087; first compound 0.3162 µM,0.668
same,relative viability,HARA; first compound 0.01 µM,0.58
same,relative viability,HARA; first compound 0.03162 µM,0.471
same,relative viability,HARA; first compound 0.3162 µM,0.383
same,relative viability,NCI-H1395; first compound 0.03162 µM,0.685
same,relative viability,NCI-H1395; first compound 0.3162 µM,0.799
same,relative viability,NCI-H661; first compound 0.01 µM,0.814
same,relative viability,NCI-H661; first compound 0.03162 µM,0.769
same,relative viability,NCI-H661; first compound 0.3162 µM,0.87
same,relative viability,NCI-H2170; first compound 0.01 µM,0.958
same,relative viability,NCI-H2170; first compound 0.03162 µM,0.937
same,relative viability,NCI-H2170; first compound 0.3162 µM,0.906
same,relative viability,NCI-H1437; first compound 0.01 µM,0.981
same,relative viability,NCI-H1437; first compound 0.03162 µM,0.929
same,relative viability,NCI-H1437; first compound 0.3162 µM,0.809
same,relative viability,LC-2-ad; first compound 0.01 µM,0.86
same,relative viability,LC-2-ad; first compound 0.03162 µM,0.789
same,relative viability,LC-2-ad; first compound 0.3162 µM,0.716
same,relative viability,LOU-NH91; first compound 0.01 µM,0.864
same,relative viability,LOU-NH91; first compound 0.03162 µM,1.03
same,relative viability,LOU-NH91; first compound 0.3162 µM,0.964
same,relative viability,NCI-H2405; first compound 0.01 µM,0.922
same,relative viability,NCI-H2405; first compound 0.03162 µM,1.13
same,relative viability,NCI-H2405; first compound 0.3162 µM,1.01
same,relative viability,BEN; first compound 0.01 µM,0.599
same,relative viability,BEN; first compound 0.03162 µM,0.659
same,relative viability,BEN; first compound 0.3162 µM,0.597
same,relative viability,HCC-827; first compound 0.01 µM,0.964
same,relative viability,HCC-827; first compound 0.03162 µM,0.866
same,relative viability,HCC-827; first compound 0.3162 µM,0.9
same,relative viability,EKVX; first compound 0.01 µM,0.811
same,relative viability,EKVX; first compound 0.03162 µM,0.683
same,relative viability,EKVX; first compound 0.3162 µM,0.675

# Reference: the supplement of paper PMC10307832
